We go through eight compounds from patent US11208413B2, “Pyrimidopyrimidinones useful as wee-1 kinase inhibitors” (ALMAC DISCOVERY LIMITED, priority 2017, dated 2021).

A short description of series [1]: Rat pharmacokinetics (CL, T1/2, AUC, F %). Particulars: male Sprague-Dawley rats; for clearance: single intravenous dose 1 mg/kg, plasma clearance, read-out: Rat PK CL; for AUC(0-inf): single oral dose 5 mg/kg, plasma exposure, read-out: Rat PK AUCinf; for bioavailability / half-life: plasma, intravenous 1 mg/kg; for bioavailability: oral 5 mg/kg, oral bioavailability, read-out: Rat PK F %; for half-life: elimination half-life, read-out: Rat PK T1/2 (converted). The class given is in vivo. How it is done:
(§1) The test methods employed to determine Wee-1 kinase inhibitory effect, Wee-1 potency in cells and kinetic solubility were the same as those taught in WO 2015/092431 (see page 350 to 358). The other test methods employed were as follows: • i. Determination of Caco-2 permeability at pH 6.5 (pH7.4 for Comparative Example 6) was carried out at Cyprotex Ltd using standard protocols and SOPs. • ii. […] Dosing was as follows: single oral dose 5 mg/kg; single intravenous dose 1 mg/kg. • iii. Determination of pharmacokinetic parameters (CUT1/2/AUC/F %) in male Sprague-Dawley rats on Comparative Example 18 was carried out at BioDuro using standard protocols and SOPs. Dosing was as follows: oral dosing 5 mg/kg; intravenous dosing 1 mg/kg • iv. […] Dosing was as follows: repeated oral dose of 30 mg/kg, once a day for 7 days. Concentrations were measured at 4 h post dose on day 7. • v. Determination of tumor:plasma concentration ratio in the tumor-bearing mouse was carried out at Axis Bioservices Ltd using standard protocols and SOPs. Dosing was as follows: single oral dose of 30 mg/kg. • vi. Determination of CYP3A4/5 time-dependent inhibition (CYP3A4/5 IC50 shift value) was carried out at Cyprotex Ltd using standard protocols and SOPs. The in-vitro test system was: pooled human liver microsomes; a 30-min preincubation step with and without NADPH was included to observe the IC50 shift. • vii. Determination of the formation of reactive metabolites was carried out at Admescope Ltd using standard protocols and SOPs. The in-vitro test system was: human hepatocytes; the duration of incubation was: 2 hours; the technique for metabolite analysis was: LC-MS/MS.

Series [2] is described as follows: Kinetic solubility. It is filed as physicochemical. As to conditions: kinetic from dmso stock. The method, then: as §1
Series [3] concerns pCDC2. Nature of the series: Wee-1 potency in cells (pCDC2 value). The class given is cell-based.
Series [4] can be described thus: Caco-2 permeability (Papp A-B). As to conditions: human. It is filed as in vitro ADME. The method, then:
as §1

Series [5] deals with Wee-1 kinase (Homo sapiens, UniProt P30291). The series is described as follows: Wee-1 kinase inhibitory effect (Wee-1 IC50). As to conditions: read-out: Wee1 IC50. It is filed as biochemical.
The nature of series [6]: Brain:plasma concentration ratio in healthy mouse. As to conditions: oral 30 mg/kg once a day for 7 days, 4 h post dose on day 7, read-out: Mouse tissue distribution brain/plasma ratio. It is filed as in vivo. How it is done:
as §1, with “Determination of the formation of reactive metabolites was carried out at Admescope Ltd using standard protocols and SOPs. The in-vitro test system was: human hepatocytes; the duration of incubation was: 2 hours; the technique for metabolite analysis was: LC-MS/MS.” left out

In series [7] the test system is CYP3A4/5. Nature of the series: CYP3A4/5 time-dependent inhibition (IC50 shift). The class given is in vitro ADME. As to conditions: pooled human liver microsomes, 30-min preincubation with and without NADPH. The method, then: as §1, with “Determination of the formation of reactive metabolites was carried out at Admescope Ltd using standard protocols and SOPs. The in-vitro test system was: human hepatocytes; the duration of incubation was: 2 hours; the technique for metabolite analysis was: LC-MS/MS.” left out

Series [8] deals with human hepatocytes. The series is described as follows: Formation of reactive metabolites in human hepatocytes. As to conditions: 2 hours incubation, LC-MS/MS. The class given is in vitro ADME. How it is done: as §1, with “Determination of the formation of reactive metabolites was carried out at Admescope Ltd using standard protocols and SOPs. The in-vitro test system was: human hepatocytes; the duration of incubation was: 2 hours; the technique for metabolite analysis was: LC-MS/MS.” left out

Series [9] is described as follows: Tumor:plasma concentration ratio in tumor-bearing mouse. The class given is in vivo. Particulars: single oral dose 30 mg/kg, read-out: Mouse tissue distribution tumor/plasma ratio. The method, then:
as §1, with “Determination of the formation of reactive metabolites was carried out at Admescope Ltd using standard protocols and SOPs. The in-vitro test system was: human hepatocytes; the duration of incubation was: 2 hours; the technique for metabolite analysis was: LC-MS/MS.” left out

Series [10] can be described thus: Chemical stability in solution. The class given is physicochemical. Particulars: Buffer at pH 7.4 and in DMSO.
Series [11] is described as follows: Solubility in fasted state simulated gastric fluid (FaSSGF). It is filed as physicochemical.
Setting [12] is: pH 6.5, read-out: caco-2 Papp A-B pH 6.5.

≈ marks a conversion by molar mass, not a printed value. Like-named read-outs stand apart in the source and are kept apart here.

Chain of Wee-1 kinase (P30291 whole entry): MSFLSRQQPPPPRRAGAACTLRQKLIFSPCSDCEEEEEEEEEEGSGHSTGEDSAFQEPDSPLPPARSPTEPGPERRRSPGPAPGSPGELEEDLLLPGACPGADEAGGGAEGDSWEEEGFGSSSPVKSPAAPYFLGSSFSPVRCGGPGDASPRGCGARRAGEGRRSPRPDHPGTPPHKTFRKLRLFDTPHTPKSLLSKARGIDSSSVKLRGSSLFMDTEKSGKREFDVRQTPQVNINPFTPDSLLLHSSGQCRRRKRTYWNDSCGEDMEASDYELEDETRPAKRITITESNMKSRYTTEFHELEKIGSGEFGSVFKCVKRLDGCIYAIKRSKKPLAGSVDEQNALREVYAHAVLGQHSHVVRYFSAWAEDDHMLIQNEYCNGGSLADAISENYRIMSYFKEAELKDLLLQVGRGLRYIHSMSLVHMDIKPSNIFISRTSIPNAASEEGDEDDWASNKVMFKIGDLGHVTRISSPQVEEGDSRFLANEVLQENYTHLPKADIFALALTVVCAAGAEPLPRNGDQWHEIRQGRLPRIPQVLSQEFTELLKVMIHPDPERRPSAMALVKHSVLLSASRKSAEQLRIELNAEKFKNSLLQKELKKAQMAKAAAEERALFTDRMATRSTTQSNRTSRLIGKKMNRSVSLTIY

Turning to `Cc1cc(Nc2ncc3c(n2)N(C)CN(c2c(Cl)cccc2Cl)C3=O)ccc1C1CCNCC1` [CE 18], in series [1], the clearance was found to be 48 mL/min/kg, the AUC(0-inf) amounted to 120 ng·h/mL and the bioavailability stood at 7%. This compound also showed a solubility (kinetic) in series [2] of 200 µM (≈ 99.5 µg/mL). In series [3], this compound showed a concentration for a half-maximal effect (EC50) of 223 nM. Further, the Papp A→B in series [4] (setting [12]) stood at 0.3 ×10⁻⁶ cm/s. Moreover, the 50% inhibitory concentration (IC50) in series [5] was 3.7 nM.
As for `Cc1cc(Nc2ncc3c(n2)N(C)CN(c2c(Cl)cccc2Cl)C3=O)ccc1N1CCNCC1` [CE 6], the Kp at 4 h in series [6] was 0.16. The “CYP3A4/5 IC50 shift” value in series [7] was 2.3-3.0. In [1], the clearance came out at 26 mL/min/kg, the AUC(0-inf) was determined as 1360 ng·h/mL, the half-life is 3.7 h and the bioavailability amounted to 41%. The compound also yielded a kinetic solubility in series [2] of 170 µM (≈ 84.7 µg/mL). The same compound registered a half-maximal effective concentration (EC50) in series [3] of 223 nM. Moreover, the Papp A→B in series [4] (pH 7.4, read-out: caco-2 Papp A-B (pH 7.4)) worked out at 6.6 ×10⁻⁶ cm/s. Also, the half-inhibitory concentration (IC50) in series [5] amounted to 2.7 nM. Also, in [8], the Reactive metabolite detected entry is “yes”. Further, the Kp in series [9] was found to be 5.7.
As for `CN1CCC(c2ccc(Nc3ncc4c(n3)N(C)CN(c3c(Cl)cccc3Cl)C4=O)cc2)CC1` [CE 95], the solubility (kinetic) in [2] was determined as 123 µM (≈ 61.2 µg/mL). In series [3], this compound showed an EC50 of 378 nM. In series [5], the IC50 is 7.9 nM.
For `COc1cc(Nc2ncc3c(n2)N(C)CN(c2c(Cl)cccc2Cl)C3=O)ccc1C1CCN(C)CC1` [CE 183] the same measures were 60 µM (≈ 31.6 µg/mL), 502 nM and 3.1 nM.
With `CN1CCC(c2ccc(Nc3ncc4c(n3)N(C)CN(c3c(Cl)cccc3Cl)C4=O)cc2CO)CC1` [CE 165], in [1], the clearance stood at 27 mL/min/kg, the AUC(0-inf) worked out at 397 ng·h/mL, the half-life is 2.1 h and the bioavailability stood at 8%. The same compound registered a solubility (kinetic) in [2] of 194 µM (≈ 102 µg/mL). In addition, in series [3], the half-maximal effective concentration (EC50) is 347 nM. Moreover, the Papp A→B in [4] (setting [12]) amounted to 0.3 ×10⁻⁶ cm/s. Besides, the IC50 in series [5] turned out to be 3.1 nM.
Regarding `Cc1cc(Nc2ncc3c(n2)N(C)CN(c2c(Cl)cccc2Cl)C3=O)ccc1C1CCN(C)CC1` [Example 1, 3-(2,6-dichlorophenyl)-1-methyl-7-((3-methyl-4-(1-methylpiperidin-4-yl)phenyl)amino)-2,3-dihydropyrimido[4,5-d]pyrimidin-4(1H)-one], in [6], the Kp at 4 h was found to be 0.69. In series [1], the clearance amounted to 14 mL/min/kg, the AUC(0-inf) amounted to 1320 ng·h/mL, the half-life is 4.5 h and the bioavailability was 35%. This compound displayed a solubility (kinetic) in series [2] of 215 µM (≈ 110 µg/mL). The “chemical stability in solution” value in [10] is reported as “improved chemical stability in solution”. The Papp A→B in series [4] (setting [12]) stood at 8.9 ×10⁻⁶ cm/s. In addition, the “solubility in fasted state simulated gastric fluid (FaSSGF)” value in series [11] was “improved solubility”. The Reactive metabolite detected entry in [8] is reported as “no”. In series [9], the Kp was 4.
Take `Cc1cc(Nc2ncc3c(n2)N(C)CN(c2c(Cl)cccc2Cl)C3=O)ccc1C1=CCN(C)CC1` [CE 178]: the kinetic solubility in series [2] was 55 µM (≈ 28 µg/mL). The compound further yielded an EC50 in series [3] of 371 nM. In addition, the Papp A→B in series [4] (setting [12]) was determined as 8.1 ×10⁻⁶ cm/s. Moreover, the IC50 in series [5] worked out at 3.2 nM.
With `Cc1cc(Nc2ncc3c(n2)N(C)CN(c2c(C)cccc2Cl)C3=O)ccc1C1CCN(C)CC1` [CE 1, 3-(2-chloro-6-methylphenyl)-1-methyl-7-((3-methyl-4-(1-methylpiperidin-4-yl)phenyl)amino)-2,3-dihydropyrimido[4,5-d]pyrimidin-4(1H)-one], in series [2], the kinetic solubility worked out at 189 µM (≈ 92.8 µg/mL). Moreover, the response in series [3] was half-maximal at 695 nM (EC50). Moreover, in [5], the IC50 was found to be 2.8 nM.
